From the NIST ThermoML archive (doi:10.1021/acs.jced.7b00297)

Assay: mn = molality of the nth substance listed, in mol/kg
Conditions: 84.5 kPa, Liquid; for speed of sound: Single path-length method; for mass density: Vibrating tube method

CCCCCCn1cc[n+](C)c1.[Cl-] [1-hexyl-3-methylimidazolium chloride] + O
Conditions	mass density, 288.15 K [kg/m3]	mass density, 298.15 K [kg/m3]	mass density, 308.15 K [kg/m3]	mass density, 318.15 K [kg/m3]	speed of sound, 288.15 K [m/s]	speed of sound, 298.15 K [m/s]	speed of sound, 308.15 K [m/s]	speed of sound, 318.15 K [m/s]
m1 = 0.0096	999.203	997.128	994.101	990.268	1468.2	1498.2	1521.1	1537.6
m1 = 0.0296	999.412	997.304	994.252	990.4	1471.7	1501.3	1523.7	1539.8
m1 = 0.0585	999.713	997.562	994.471	990.58	1476.8	1505.7	1527.4	1543
m1 = 0.0734	999.867	997.692	994.583	990.681	1479.4	1507.9	1529.3	1544.6
m1 = 0.0999	1000.15	997.932	994.787	990.859	1483.9	1511.7	1532.6	1547.3
m1 = 0.1212	1000.37	998.125	994.95	990.996	1487.4	1514.8	1535.2	1549.6
m1 = 0.1542	1000.73	998.421	995.204	991.215	1493	1519.5	1539.2	1553
m1 = 0.2244	1001.47	999.058	995.748	991.681	1504	1528.9	1547.3	1559.8
m1 = 0.2863	1002.12	999.62	996.227	992.089	1513.8	1537.3	1554.3	1565.8
m1 = 0.469	1004.08	1001.27	997.628	993.281	1540.2	1559.7	1573.2	1581.6
m1 = 0.8901	1008.38	1004.89	1000.7	995.899	1591.4	1602.4	1608.7	1610.9
